Consider six molecules from patent US9309256B2, “Pharmaceutically active dimers linked through phenolic hydroxyl groups” (OrphoMed LLC, priority 2014, dated 2016).

Bounds are passed on as bounds.

One data set concerns IBS-D patients. The settings on record: cited from earlier work.
The nature of data set [1]: Stress stability assay of the buprenorphine dimer (tap water, acid, base, heat). The settings on record: 1N HCl, 5% aqueous sodium bicarbonate, room temperature and 140° F., up to 30 minutes. The format is physicochemical.
Description: This study facilitated the understanding of the ease with which a potential abuser could cleave the dimer using household chemicals such as baking soda, acid or simple heating in water. Buprenorphine dimer stability was assessed at room temperature in untreated tap water and in presence of acid (1N HCl) or base (5% aqueous sodium bicarbonate).
In data set [2] the target is T1, human δ subtype 2 opioid receptor (Homo sapiens, UniProt P41143).
T1 construct: purchased Perkin Elmer RBHODM400UA; host or cells: Chinese Hamster Ovary cells (membranes)
T1 sequence (P41143 whole entry): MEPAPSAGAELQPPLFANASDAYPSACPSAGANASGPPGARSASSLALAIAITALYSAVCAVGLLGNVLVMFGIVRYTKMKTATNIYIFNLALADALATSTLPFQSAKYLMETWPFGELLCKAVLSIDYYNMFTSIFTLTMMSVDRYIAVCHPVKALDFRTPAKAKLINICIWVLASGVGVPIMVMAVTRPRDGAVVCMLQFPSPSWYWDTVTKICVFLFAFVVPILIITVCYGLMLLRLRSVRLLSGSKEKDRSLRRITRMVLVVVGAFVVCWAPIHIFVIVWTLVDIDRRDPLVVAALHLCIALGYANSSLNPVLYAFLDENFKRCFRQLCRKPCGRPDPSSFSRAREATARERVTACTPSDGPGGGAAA
Description: Human δ opioid receptor binding assay (tritiated naltrindole displacement). The procedure:
The assay was designed to test the ability of a compound to interfere with the binding of tritiated naltrindole to the human δ subtype 2 opioid receptor. Membranes from Chinese Hamster Ovary cells expressing the human δ subtype 2 opioid receptor (Perkin Elmer #RBHODM400UA) were homogenized in assay buffer (50 mM Tris, pH 7.5 with 5 mM MgCl2) using a glass tissue grinder, Teflon pestle and Steadfast Stirrer (Fisher Scientific). The concentration of membranes was adjusted to 100 μg/mL in the assay plate, a 96 well round bottom polypropylene plate. Compounds to be tested were solubilized in DMSO, 10 mM, then diluted in assay buffer to 6× the desired final concentration. The ligand, ^3H-natrindole (Perkin Elmer #NET-1065) was also diluted in assay buffer to 6 nM. Aliquots of ^3H-natrindole (50 μL) were transferred to the assay plate containing the membranes in duplicate. The assay plate was incubated for 30 minutes at room temperature. A GF/C 96 well filter plate (Perkin Elmer #6005174) was pretreated with 0.3% polyethylenimine for 30 min. The contents of the assay plate were filtered through the filter plate using a Packard Filtermate Harvester, and washed 3 times with 0.9% saline at 4° C. The filter plate was dried, the underside sealed, and a 30 μL MictoS=scint 20 (Packard #6013621) was added to each well. A Topcount-NXT Microplate Scintillation Counter (Packard) was used to measure emitted energies in the range of 2.9 to 35 KeV. Results are compared to maximum binding, wells receiving no inhibitors. Nonspecific binding was determined in the presence of 1 μM unlabelled Natrindole. […] Relative to the μ and κ opioid receptors, the dimer has poor affinity for the δ receptor.

Data set [3] addresses T2, human μ receptors (Homo sapiens, UniProt P35372).
T2 construct: purchased Receptor Biology Inc. (Baltimore Md.); host or cells: CHO-hMOR cell membranes
The experiment in a line: μ opioid receptor agonist functional assay: [35S]GTPγS binding in CHO-hMOR cell membranes. The settings on record: FIG. 11. The format is biochemical. The procedure: (§1) This example illustrates the ability of the buprenorphine dimer provided herein to stimulate the p-opioid receptor-mediated signaling. Briefly, CHO-hMOR cell membranes were purchased from Receptor Biology Inc. (Baltimore Md.). About 10 mg/ml of membrane protein was suspended in 10 mM TRIS-HCl pH 7.2, 2 mM EDTA, 10% sucrose, and the suspension kept on ice. One mL of membranes was added to 15 mL cold binding assay buffer containing 50 mM HEPES, pH 7.6, 5 mM MgCl2, 100 mM NaCl, 1 mM DTT and 1 mM EDTA. The membrane suspension was homogenized with a polytron and centrifuged at 3000 rpm for 10 min. The supernatant was then centrifuged at 18,000 rpm for 20 min. The pellet was resuspended in 10 mL assay buffer with a polytron. […]
(§2) The buprenorphine dimer was tested for function as an antagonist by evaluating its potential to inhibit agonist-stimulated GTPγS binding using D-Phe-Cys-Tyr-D-Trp-Orn-Thr-Pen-Thr-NH2 (CTOP) as the standard. Radioactivity was quantified on a Packard Top Count. The following parameters are calculated: % Stimulation=[(test compound cpm−non-specific cpm)/(basal cpm−non-specific cpm)]*100 % Inhibition=(% stimulation by 1 μM SNC80−% stimulation by 1 μM SNC80 in presence of test compound)*100/(% stimulation by 1 μM SNC80−100).
(§3) EC50 was calculated using GraphPad Prism.
A general note: GTPγS resists hydrolysis and so accumulates on activated G proteins.

The target in data set [4] is T2, human μ receptors. The experiment in a line: μ opioid receptor antagonist functional assay: [35S]GTPγS binding in CHO-hMOR cell membranes. The settings on record: inhibition of agonist-stimulated GTPγS binding, FIG. 12. The format is biochemical. Here is the method: as §1, §2, §3
A short description of data set [5]: In vivo pharmacokinetic study, oral and IV. The conditions noted are these: CD-1 mice, 10 mg/kg IV and oral gavage. The procedure:
Animals used in these animal pharmacokinetic studies were CD-1 mice (about 35 gms, n=3 per time point). Drugs tested were buprenorphine and the buprenorphine dimer. Dose 10 mg/kg IV and oral gavage. Blood was collected at time 0, 30 min and 1, 2, 6 and 24 hours. Blood samples for the drug were analyzed after harvesting the plasma and by LC/MS/MS as follows:
Standard curve was prepared in mouse plasma spiked with either the test drugs (10-25000 nM). Plasma samples (50 μL) were extracted in 300 μL acetonitrile containing losartan or buprenorphine-d4 as internal standard. Extracts were centrifuged at 16000×g at 4° C. for 5 minutes. Supernatants (250 μL) were transferred to a new tube and dried under N2 at 45° C. for 1 hour. Samples were reconstituted with 100 μL of 30% acetonitrile, vortexed and centrifuged. Supernatants (90 μL) were transferred to LC vials and 10 μL is injected on LC/MS.

The test system of data set [6] is male CD-1 mice. The experiment in a line: Stress-induced fecal output. The format is in vivo. From the text:
The animals used in the studies were male CD-1 mice, average weight about 30 to 35 g, with an average of 5 mice per dose group. The mice were generally housed in colony housing where they are housed 3 per cage in polycarbonate cages with access to food and water ad lib.
On the day of the experiment the mice were transported to the procedure room where they were individually housed in 20 cm wide×20 cm deep×15 cm tall cages, equipped with a wire mesh bottom after intragastric administration of test compounds. During the test the animals were allowed access to water only ad lib. The wire mesh bottomed tall cage creates a novel environment which induces stress in mice. The number of pellets excreted was determined on an hourly basis.

Data set [7] concerns male CD-1 mice. The experiment in a line: Effect on post-inflammatory altered GI transit time (mustard oil). The format is in vivo. The settings on record: 25 mg per kg oral, mustard oil treated mice. The procedure:
This test was designed to measure the effect of test substance on gastrointestinal hypersensitivity following inflammation. Post-inflammatory altered GI transit was induced in male CD-1 mice by injecting freshly opened oil of mustard (95% pure allyl isothiocyanate, 0.5% in ethanol). The effect of stress on the post-inflammatory GI tract was tested 3-4 weeks after dosing. […] The effect of the test substance was measured after oral administration (intragastric gavage) and subjecting animals to environmental stress by housing them in cages (20 cm wide×20 cm deep×15 cm tall), equipped with a wire mesh bottom. During the test the animals were allowed access to water ad lib. The wire mesh bottomed tall cage creates a novel environment which induces stress in mice. The number of pellets excreted is determined on hourly to two-hourly basis.

Data set [8] has as its system human liver microsomes. Description: Metabolic stability of buprenorphine dimer in human liver microsomes. The conditions noted are these: 1 μM, human liver microsomes 1 mg protein/mL, 37 °C, with or without NADPH co-factor, up to 2 hours. (Microsomes from liver hold many membrane-bound enzymes, among them those of drug oxidation.)
Description: Incubations of the dimer (e.g., 1 μM) with human liver microsomes (e.g., 1 mg protein/mL) were carried out using a Tecan Liquid Handling System (Tecan), or equivalent, at 37±1° C. in 0.2-mL incubation mixtures (final volume) containing potassium phosphate buffer (50 mM, pH 7.4), MgCl2 (3 mM) and EDTA (1 mM, pH 7.4) with and without a cofactor, NADPH-generating system, at the final concentrations indicated in a 96-well plate format. The NADPH-generating system consisted of NADP (1 mM, pH 7.4), glucose-6-phosphate (5 mM, pH 7.4) and glucose-6-phosphate dehydrogenase (1 Unit/mL). The buprenorphine dimer was dissolved in aqueous methanolic solution (methanol 0.5% v/v, or less). […] Zero-time incubations served as 100% value to determine percent loss of substrate. […] The samples were subjected to centrifugation (e.g., 920×g for 10 min at 10° C.) and the supernatant fractions analyzed by LC-MS/MS. […]
The above samples were analyzed by an LC-MS/MS method. […] Results were determined by a comparison of peak ratios over the time course of the experiment (typically reported as “% Parent Remaining”).
Data were calculated with a LIMS (includes Galileo, Thermo Fisher Scientific Inc. and reporting tool, Crystal Reports, SAP), the spreadsheet computer program Microsoft Excel (Microsoft Corp.) or equivalent. […]
Data set [9] deals with T3, μ opioid receptor (Homo sapiens, UniProt P35372). The experiment in a line: Human μ opioid receptor binding assay (3H-Naloxone displacement). The arrangement: purchased Perkin Elmer RBHOMM400UA; host or cells: Chinese Hamster Ovary cells (membranes). The settings on record: FIG. 9.
Target sequence in this assay (P35372 whole entry): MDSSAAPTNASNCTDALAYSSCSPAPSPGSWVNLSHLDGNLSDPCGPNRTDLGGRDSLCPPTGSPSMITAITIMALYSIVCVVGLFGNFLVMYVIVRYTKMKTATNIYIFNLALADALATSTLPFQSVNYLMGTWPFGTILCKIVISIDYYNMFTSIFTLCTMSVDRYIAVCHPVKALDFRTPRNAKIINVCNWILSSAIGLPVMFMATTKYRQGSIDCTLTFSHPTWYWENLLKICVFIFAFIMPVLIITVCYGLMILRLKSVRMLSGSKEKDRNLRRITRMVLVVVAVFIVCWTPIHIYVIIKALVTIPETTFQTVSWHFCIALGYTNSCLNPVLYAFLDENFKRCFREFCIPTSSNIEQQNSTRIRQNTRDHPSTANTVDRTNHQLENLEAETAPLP
Description: Membranes from Chinese Hamster Ovary cells expressing the human μ opioid receptor (Perkin Elmer #RBHOMM400UA) were homogenized in assay buffer (50 mM Tris, pH 7.5 with 5 mM MgCl2) using glass tissue grinder, Teflon pestle and Steadfast Stirrer (Fisher Scientific). The concentrates of the membranes were adjusted to 300 μg/mL in assay plate, a 96 well round bottom polypropylene plate. […] From the premix plate 50 μL was transferred to the assay plate containing the membranes, in duplicate. The assay plate was incubated for 2 h at room temperature. […] The contents of the assay plate were filtered through the filter plate using a Packard Filtermate Harvester, and washed 3 times with 0.9% saline at 4° C. […] A Topcount-NXT Microplate Scintillation Counter (Packard) was used to measure emitted energies in the range of 2.9 to 35 KeV. Results were compared to maximum binding, wells receiving no inhibitions.
Data set [10] concerns the target T3, μ opioid receptor. The conditions noted are these: briefing documents to FDA advisory committee; cited from earlier work.
Target sequence in this assay (P35372 whole entry, species assumed): as the sequence (P35372 whole entry) above
Data set [11] relates to human liver microsomes. The conditions noted are these: approximately 1 μM, human liver microsomes 1 mg protein/ml, up to 1 hour.
Description: Incubations of the dimer (e.g., 1 μM) with human liver microsomes (e.g., 1 mg protein/mL) were carried out using a Tecan Liquid Handling System (Tecan), or equivalent, at 37±1° C. in 0.2-mL incubation mixtures (final volume) containing potassium phosphate buffer (50 mM, pH 7.4), MgCl2 (3 mM) and EDTA (1 mM, pH 7.4) with and without a cofactor, NADPH-generating system, at the final concentrations indicated in a 96-well plate format. The NADPH-generating system consisted of NADP (1 mM, pH 7.4), glucose-6-phosphate (5 mM, pH 7.4) and glucose-6-phosphate dehydrogenase (1 Unit/mL). […] Zero-time incubations served as 100% value to determine percent loss of substrate. Incubations were carried out in triplicate with an exception for zero-time samples (which were incubated in quadruplicate). Zero-cofactor (no NADPH) incubations were performed at zero-time and the longest time point. The samples were subjected to centrifugation (e.g., 920×g for 10 min at 10° C.) and the supernatant fractions analyzed by LC-MS/MS. Additional incubations were carried out with microsomes and a marker substrate (e.g., dextromethorphan to monitor substrate loss) as a positive control to determine if the test system was metabolically competent.
The incubation medium was assayed by LC/MS/MS for the formation of naloxone over time.
The conditions of data set [12]: room temperature, tap water, 1N HCl or 5% aqueous sodium bicarbonate.
The subject of a further data set is mice. The settings on record: mildly stressed mice.

T2 sequence (P35372 whole entry): as above

Regarding `COc1ccc(CN(C(=O)[C@@H](N)Cc2c(C)cc(C(N)=O)cc2C)[C@@H](C)c2ncc(-c3ccccc3)[nH]2)cc1C(=O)O` [Eluxadoline], the pancreatitis cases result in the data set with IBS-D patients (Phase II trials) is reported as “several cases of pancreatitis”. In addition, the “Phase III efficacy endpoints” value with IBS-D patients (Phase III testing, IBS-D) was “met primary endpoints of improvement in stool consistency and reduction of abdominal pain”.

Usually IC50 stands for the concentration that inhibits the measured activity by half. A higher IC50 goes with a need for much substance. The Ki is the equilibrium dissociation constant of an inhibitor or competing ligand from its target. On to `CO[C@]12CC[C@@]3(C[C@@H]1[C@](C)(O)C(C)(C)C)[C@H]1Cc4ccc(OCCOc5ccc6c7c5O[C@H]5[C@@]8(OC)CC[C@@]9(C[C@@H]8[C@](C)(O)C(C)(C)C)[C@@H](C6)N(CC6CC6)CC[C@]759)c5c4[C@@]3(CCN1CC1CC1)[C@H]2O5` [buprenorphine dimer], for which the “stability / degradation to buprenorphine” value in data set [1] is “remained stable and did not degrade to release buprenorphine”. Besides, in data set [2], the IC50 is 7.6 nM; the affinity corresponds to a Ki of 2.87 nM; the “affinity for the δ receptor relative to the μ and κ opioid receptors” value is “poor affinity”. Moreover, on human μ receptors [3], the μ agonist function entry is reported as “potent μ agonist”. The μ antagonist function result at human μ receptors [4] was “does not function as a μ-antagonist”. The “absolute bioavailability (ratio of the area under the concentration curve after oral and IV dose)” value in data set [5] was at most 1%. Further, in the data set with male CD-1 mice [6] (FIG. 15), the “dose dependence of fecal output” value is on record as “decreases with dose”. The “fecal output versus placebo (vehicle)” value in the data set with male CD-1 mice [6] (oral, 25 and 50 mg per kg, stressed male CD-1 mice) was “significantly reduced the fecal output”. Further, the “gastrointestinal motility as measured by fecal output” value with male CD-1 mice [7] is listed as “significantly decreases gastrointestinal motility”. The “gastrointestinal motility as measured by fecal output at 2 hours” value in the data set on male CD-1 mice [7] (2 hours) was “continues to inhibit gastrointestinal motility with statistically significant results”. Besides, in the data set on human liver microsomes [8], the “stability in presence of microsomal enzymes (% Parent Remaining)” value is given as “relatively stable”. Further, the “affinity for the opioid μ receptor” value on μ opioid receptor [9] is reported as “significant affinity”.

With `C[N@+]1(CC2CC2)CC[C@]23c4c5ccc(O)c4O[C@H]2C(=O)CC[C@@]3(O)[C@H]1C5` [Methylnaltrexone Bromide], the Ki on μ opioid receptor [10] was 42 nM.

For the molecule `CO[C@]12CC[C@@]3(C[C@@H]1[C@](C)(O)C(C)(C)C)[C@H]1Cc4ccc(O)c5c4[C@@]3(CCN1CC1CC1)[C@H]2O5` [buprenorphine, Buprenorphine, reference compound], in [5], the “absolute bioavailability (ratio of the area under the concentration curve after oral and IV dose)” value is “about 30%”.

Take `C=CCN1CC[C@]23c4c5ccc(OCCOc6ccc7c8c6O[C@H]6C(=O)CC[C@@]9(O)[C@@H](C7)N(CC=C)CC[C@]869)c4O[C@H]2C(=O)CC[C@@]3(O)[C@H]1C5` [naloxone dimer]: the “formation of naloxone over time” value in the data set with human liver microsomes [11] is “no evidence of formation naloxone over time”. For the same molecule, the “stability / degradation to naloxone” value in data set [12] is given as “does not appreciably degrade to naloxone”. The “reversal of loperamide-induced constipation (fecal pellets excreted per hour)” value in the data set on mice (comparable to control by hour 3 or later) is recorded as “reversed the constipating effects”.

Take `CN(C)C(=O)C(CCN1CCC(O)(c2ccc(Cl)cc2)CC1)(c1ccccc1)c1ccccc1` [loperamide, reference compound]: the “number of pellets expelled versus control (vehicle) animals” value in the data set on mice is “significantly less”.
